Measured values: patent publication US10563272B2, “Compositions comprising Metarhizium fungi and use thereof as a pesticide” (Cotton Research and Development Corporation, priority 2015, dated 2020)

How the values were obtained:
predatory lacewings = test: Bollgard II cotton, Auscott-Togo 2012-13, Field 63 (Experiment 2): predatory lacewings; assay type: in vivo, Chrysopa spp., Micromus tasmaniae; conditions: 62.5 mL/ha
Description: Two separate trials (Experiment 1 in Field 77; Experiment 2 in Field 63) were conducted in Bollgard II cotton crops on a commercial cotton farm at Auscott-Togo near Narrabri, New South Wales from 11 Feb. to 5 Mar. 2013 (Field 77) and 19 Feb. to 6 Mar. 2013 (Field 63). The cotton used for each of the trials was at the late squaring to pod setting and maturation stages which was fairly attractive to green mirids.
(§1) In both trials, the efficacy of the following treatments against green mirids and predatory insects was evaluated: • 1. 250 mL/ha DAT 511 spore in oil (1×10^7 spores/ml); • 2. 500 mL/ha DAT 511 spore in oil (1×10^7 spores/ml); • 3. 1 L/ha DAT 511 spore in oil (1×10^7 spores/ml); • 4. 62.5 mL/ha of fipronil; and • 5. Unsprayed (negative control).
The treatment plots were arranged in a randomized complete block design with six replicates per treatment. Each replicated plot measured 40 m wide (40 rows) and 90 m long.
Foliar application of each treatment was made on 28 Feb. (for both green mirids and beneficial insects) and 13 Mar. 2012 (for beneficial insects alone) using a ground spray rig fitted with flat fan nozzles to achieve a droplet size of 200 μm. The treatment was applied during the mornings when temperatures were between 20° C. and 28° C. The timing of treatment was based on the IPM Guidelines and recommendations by CottonLogic to use an economic threshold of 0.5 green mirids per metre (Deutscher and Wilson 1999; Khan et al. 2004).
Pre-treatment counts of green mirid adults and nymphs, predatory beetles, predatory bugs, predatory lacewings and spiders were made by visual inspection of whole cotton plants. Both adults and nymphs of beneficial insects were counted. Plants were assessed in randomly selected one-metre lengths of row of each replicate (i.e. 6 m per treatment). Post-treatment counts were made 3, 7, 14 and 21 days after treatment. Data are expressed as numbers of green mirid adults and nymphs counted per metre for each treatment.

predatory beetles = test: Foliar spray trial on Bollgard II cotton, Norwood 2010-11 (Example 7): predatory beetles; assay type: in vivo, Coleoptera (Coccinellidae, Melyridae); conditions: fipronil 62.5 mL/ha; for number of predatory beetles per meter: 1st spray, BC 667/DAT 511 0.50 L/ha; for number of predatory beetles per metre: 2nd spray, BC 667/DAT 511 0.5 L/ha
Description: (§2) The trial was conducted on commercial Bollgard II® cotton crops at Norwood near Moree, NSW from 5 Dec. 2010 to 19 Feb. 2011. The cotton was at the early squaring stage, when it was attractive to green mirids (Khan et al. 2004).
(§3) The study evaluated the efficacy of the following treatments against green mirids, green vegetable bugs and predatory insects: • 1. 500 mL/ha BC 667 spore in oil (1×10^7 spores/ml); • 2. 500 mL/ha DAT 511 spore in oil (1×10^7 spores/ml); • 3. 62.5 mL/ha Fipronil (conventional insecticide); and • 4. Unsprayed (control).
(§4) The treatment plots were arranged in a randomized complete block design with four replicates per treatment. Each replicated plot measured 0.5 ha. Foliar application of each treatment was made on 18 Jan. 2011 using a ground spray rig fitted with flat fan nozzles to achieve a droplet size of 80 250 μm. The treatment was applied in the mornings when temperature was between 20° C. and 28° C. The timing of treatment was based on an economic threshold of 0.5 green mirids per metre, the IPM guideline and recommendation by CottonLogic.
(§5) Pre-treatment counts of green mirid adults and nymphs, predatory beetles, predatory bugs, predatory lacewings and spiders were made by visual inspection of whole cotton plants. Both adults and nymphs of the beneficial insects were counted. Plants were assessed in randomly selected one-metre lengths of row of each treatment replicate (i.e. four metres per treatment). In all, two spray applications of each treatment were made. The first spray was made on 18 Jan. 2011. Post-treatment counts of the first spray application were taken 3, 7 and 14 days after treatment (DAT) (first spray). A second spray application was done on 1 Feb. 2011 when green mirid adults plus nymphs reached the threshold of 0.5 per metre. Post-treatment counts of the second spray application were taken 3, 7, 14, 21 and 28 DAT. Data are expressed as numbers of individuals of that species counted per metre for each treatment.

spiders = test: Foliar spray trial on Bollgard II cotton, Norwood 2010-11 (Example 7): spiders; assay type: in vivo, Lycosa spp., Oxyopes spp., Salticidae spp., Araneus spp.; conditions: fipronil 62.5 mL/ha; for number of spiders per meter: 1st spray, BC 667/DAT 511 0.50 L/ha; for number of spiders per metre: 2nd spray, BC 667/DAT 511 0.5 L/ha
Description: as §2, §3, §4, §5

apple dimpling bugs = test: Rate trial on conventional cotton refuge crops, Undabri 2012 (Example 12): apple dimpling bugs; assay type: in vivo, Campylomma liebknechti
Description: This trial was conducted using commercial conventional cotton refuge crops at Undabri in Goondiwindi (28° 55'S, 150° 31′E) from 14 Feb. to 6 Mar. 2012.
as §1, with “The” for “In both trials, the”, “mirids, green vegetable bugs” for “mirids”, “assessed:” for “evaluated:”, “mL/ha” for “mL/ha of”
The plots were arranged in a randomized complete block design with three replicates per treatment. Each replicated plot measured 8 m (8 rows) wide and 250 m long.
Foliar applications of each treatment were made on 14 Feb. 2012 using a ground spray rig fitted with flat fan nozzles to achieve a droplet size of 200 μm. All insecticide formulations were water miscible. All treatments were applied using a spray volume of 100 L/ha. The untreated (negative control) plot was left unsprayed and the plot treated with synthetic insecticide received two applications similar to, and on the same date as, the plots treated with the fungus.
For each replicate, visual counts of adults and nymphs of green mirids, green vegetable bugs (GVB), apple dimpling bugs and predatory insects on whole cotton plants were made in a randomly selected 1 m length of row of cotton plants (i.e. 6 m per treatment). […]

N#Cc1nn(-c2c(Cl)cc(C(F)(F)F)cc2Cl)c(N)c1[S+]([O-])C(F)(F)F (stereo not drawn) [fipronil]
No. predatory lacewings per meter (predatory lacewings; 3 DAT): 0.00 ± 0.00 a per meter | No. predatory lacewings per meter (predatory lacewings; 7 DAT): 0.00 ± 0.00 a per meter | No. predatory lacewings per meter (predatory lacewings; 14 DAT): 0.00 ± 0.00 a per meter | No. predatory lacewings per meter (predatory lacewings; 21 DAT): 0.00 ± 0.00 a per meter | No. predatory lacewings per meter (predatory lacewings; pre-spray counts): 0.67 ± 0.33 a per meter | number of predatory beetles per meter (predatory beetles; 3 DAT): 0.00 ± 0.00 a per meter | number of predatory beetles per meter (predatory beetles; 7 DAT): 0.00 ± 0.00 a per meter | number of predatory beetles per meter (predatory beetles; 14 DAT): 0.00 ± 0.00 a per meter | number of predatory beetles per meter (predatory beetles; pre-spray counts 18 Jan. 2011): 0.67 ± 0.33 a per meter | number of predatory beetles per metre (predatory beetles; 3 DAT): 0.33 ± 0.33a per metre | number of predatory beetles per metre (predatory beetles; 7 DAT): 0.33 ± 0.33a per metre | number of predatory beetles per metre (predatory beetles; 14 DAT): 0.00 ± 0.00a per metre | number of predatory beetles per metre (predatory beetles; 21 DAT): 1.00 ± 0.58a per metre | number of predatory beetles per metre (predatory beetles; 28 DAT): 0.67 ± 0.33a per metre | number of predatory beetles per metre (predatory beetles; pre-spray counts 1 Feb. 2011): 0.00 ± 0.00a per metre | number of spiders per meter (spiders; 3 DAT): 3.33 ± 0.33 a per meter | number of spiders per meter (spiders; 7 DAT): 4.67 ± 2.03 b per meter | number of spiders per meter (spiders; 14 DAT): 9.67 ± 1.45 a per meter | number of spiders per meter (spiders; pre-spray counts 18 Jan. 2011): 9.33 ± 1.20 a per meter | number of spiders per metre (spiders; 3 DAT): 12.00 ± 1.16a per metre | number of spiders per metre (spiders; 7 DAT): 10.33 ± 2.67a per metre | number of spiders per metre (spiders; 14 DAT): 16.00 ± 0.58b per metre | number of spiders per metre (spiders; 21 DAT): 21.00 ± 3.22a per metre | number of spiders per metre (spiders; 28 DAT): 21.00 ± 3.00a per metre | number of spiders per metre (spiders; pre-spray counts 1 Feb. 2011): 9.67 ± 1.45a per metre | apple dimpling bug adults per metre versus the unsprayed plot (apple dimpling bugs; 3, 7, 14 and 21 DAT, P<0.01): significantly fewer | apple dimpling bug nymphs per metre versus unsprayed plots (apple dimpling bugs; 7 DAT only, P<0.05): significantly lower
